Laboratory results: US20110092476A1, “Bicycloheteroaryl compounds as P2X7 modulators and uses thereof” (Renovis, Inc., priority 2006, published 2011)
Read-outs that look alike come from different tables or passages of the source.

Target: T1, P2X7 receptor (Homo sapiens, UniProt Q99572)
T1 construct: host or cells: THP-1 cells differentiated with LPS and IFN-γ
T1 sequence (Q99572 1-595): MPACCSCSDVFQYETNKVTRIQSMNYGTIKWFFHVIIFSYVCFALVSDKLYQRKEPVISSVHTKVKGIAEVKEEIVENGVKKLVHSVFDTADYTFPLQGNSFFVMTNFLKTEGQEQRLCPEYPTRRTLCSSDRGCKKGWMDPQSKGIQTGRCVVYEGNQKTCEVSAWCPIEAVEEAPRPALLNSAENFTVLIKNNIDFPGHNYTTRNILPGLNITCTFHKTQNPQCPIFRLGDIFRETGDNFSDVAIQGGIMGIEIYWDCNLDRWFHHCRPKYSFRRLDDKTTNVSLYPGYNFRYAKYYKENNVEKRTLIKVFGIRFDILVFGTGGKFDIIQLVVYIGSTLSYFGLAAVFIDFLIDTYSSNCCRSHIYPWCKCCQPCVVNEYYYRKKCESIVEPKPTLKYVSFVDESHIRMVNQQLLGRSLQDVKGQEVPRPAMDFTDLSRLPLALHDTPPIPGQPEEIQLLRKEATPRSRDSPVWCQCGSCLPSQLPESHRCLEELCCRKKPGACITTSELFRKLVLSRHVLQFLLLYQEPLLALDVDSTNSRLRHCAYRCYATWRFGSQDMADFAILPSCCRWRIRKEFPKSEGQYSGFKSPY
Test: IL-1β release assay in differentiated THP-1 cells stimulated with BzATP (Example 9)
Type: cell-based
How it was run: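 IC50 derived by four-parameter logistic fit of percent inhibition of IL-1β release (ELISA, background-adjusted). Release triggered by 45 min BzATP at 250 uM final after 30 min compound pretreatment of THP-1 cells previously differentiated 16 h (LPS, IFN-γ, 100 ng/mL each) and re-primed 2 h with LPS.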

[1] = 0.3 μM compound, differentiated THP-1 cells, BzATP 250 uM, "+" symbols, read-out: IL-1β % Inhib. @ 0.3 or 0.1 uM
[2] = 0.3 μM compound (symbols +), differentiated THP-1 cells, BzATP 250 uM, read-out: IL-1β % Inhib. @ 0.3 or 0.1 uM
[3] = 0.1 μM compound (symbols *), differentiated THP-1 cells, BzATP 250 uM, read-out: IL-1β % Inhib. @ 0.3 or 0.1 uM
[4] = 0.1 μM compound, differentiated THP-1 cells, BzATP 250 uM, "*" symbols, read-out: IL-1β % Inhib. @ 0.3 or 0.1 uM

SMILES | inhibition at 0.3 µM [1] [%] | inhibition at 0.1 µM [3] [%] | also measured
COc1ccc(CC(=O)Nc2cccc3c(=O)n(CCO)ccc23)cc1 [Compound 2] |  |  | inhibition at 0.3 µM [2]: 0 to 25%
C[C@@H](C(N)=O)n1ccc2c(NC(=O)Cc3ccc(C(F)(F)F)cc3)c(Cl)ccc2c1=O [Compound 345, (S)-2-{6-Chloro-1-oxo-5-[2-(4-trifluoromethyl-phenyl)-acetylamino]-1H-isoquinolin-2-yl}-propionamide] |  |  | inhibition at 0.3 µM (THP-1, read-out: IL-1β % Inhib. @ 0.3 or 0.1 uM): > 76%
CCOc1ccc(C(=O)Nc2cccc3c(=O)n(CC4(O)CCCCC4)ccc23)cc1 [Compound 21] |  | 0 to 25 | 
Cc1ccccc1CCC(=O)Nc1cccc2c(=O)n(CC3(O)CCCCC3)ccc12 [Compound 84] |  | 0 to 25 | 
O=C(Cc1cc(C(F)(F)F)ccc1C(F)(F)F)Nc1cccc2c(=O)n(CCO)ccc12 [Compound 70] |  |  | inhibition at 0.3 µM [2]: 26 to 50%
Cc1ccccc1CC(=O)Nc1cccc2c(=O)n(CC(C)(C)O)ccc12 [Compound 211] |  |  | inhibition at 0.1 µM [4]: 0 to 25%
CC(C)(O)Cn1ccc2c(NC(=O)c3cc4ccccc4o3)cccc2c1=O [Compound 217] |  |  | inhibition at 0.1 µM [4]: 0 to 25%
O=C(Cc1ccc2c(c1)OCO2)Nc1cccc2c(=O)n(CC3(O)CCCCC3)ccc12 [Compound 38] |  |  | inhibition at 0.3 µM [2]: 0 to 25%
O=C(Cc1cc(C(F)(F)F)cc(C(F)(F)F)c1)Nc1cccc2c(=O)n(CCO)ccc12 [Compound 64] |  |  | inhibition at 0.3 µM [2]: 51 to 75%
CC(C)(CO)n1ccc2c(NC(=O)Cc3ccc(F)c(C(F)(F)F)c3)cccc2c1=O [Compound 367] | > 76 |  | 
Cc1cc(C)c(CC(=O)Nc2cccc3c(=O)n(CC(C)O)ccc23)c(C)c1 (stereo not drawn) [Compound 129] |  | 0 to 25 | 
O=C(Nc1cccc2c(=O)n(CC3(O)CCCCC3)ccc12)c1ccc(-c2ccccc2)cc1 [Compound 22] |  | 0 to 25 | 
O=C(Cc1ccc(Cl)c(Cl)c1)Nc1c(Cl)ccc2c(=O)n(CCO)ccc12 [Compound 248] | 0 to 25 |  | 
COc1ccc(CCC(=O)Nc2cccc3c(=O)n(CC4(O)CCCCC4)ccc23)cc1 [Compound 25] |  |  | inhibition at 0.3 µM [2]: 0 to 25%

Second part, led by results:

inhibition at 0.3 µM [1] [%] | inhibition at 0.1 µM [3] [%] | SMILES | also measured
> 76 |  | C[C@@H](CO)n1ccc2c(NC(=O)Cc3ccc(F)c(C(F)(F)F)c3)cccc2c1=O [Compound 338] | 
> 76 |  | C[C@@H](CO)n1ccc2c(NC(=O)Cc3cccc(C(F)(F)F)c3F)cccc2c1=O [Compound 325] | 
51 to 75 |  | CC(C)(CO)n1ccc2c(NC(=O)Cc3ccc(Cl)c(F)c3)cccc2c1=O [Compound 373] | 
> 76 |  | CC(C)[C@H](CO)n1ccc2c(NC(=O)[C@H](C)c3ccc(Cl)cc3)cccc2c1=O [Compound 273, (R)-2-(4-Chloro-phenyl)-N—[(R)-2-(1-hydroxymethyl-2-methyl-propyl)-1-oxo-1,2-dihydro-isoquinolin-5-yl]-propionamide] | 
 | 0 to 25 | Cc1cc(C(=O)Nc2cccc3c(=O)n(CC(C)(C)O)ccc23)ccc1Cl [Compound 196] | 
 | 0 to 25 | Cc1cccc(C(=O)Nc2cccc3c(=O)n(CC(C)O)ccc23)c1 (stereo not drawn) [Compound 144] | 
> 76 |  | C[C@@H](C(=O)Nc1cccc2c(=O)n([C@@H](C)CO)ccc12)c1ccc(Cl)c(Cl)c1 [Compound 317] | 
> 76 |  | CC(C(=O)Nc1cccc2c(=O)n([C@H](C)C(N)=O)ccc12)c1ccc(F)cc1 (stereo partly drawn) [Compound 299] | 
 | 0 to 25 | CCOc1ccc(C(=O)Nc2cccc3c(=O)n(C(C)CO)ccc23)cc1 (stereo not drawn) [Compound 101] | 
51 to 75 |  | C[C@H](CO)n1ccc2c(NC(=O)Cc3ccc(F)c(Cl)c3)cccc2c1=O [Compound 329] | 
> 76 |  | C[C@@H](C(N)=O)n1ccc2c(NC(=O)Cc3ccc(C(F)(F)F)c(F)c3)cccc2c1=O [Compound 347] | 
 | 0 to 25 | COc1ccccc1CCC(=O)Nc1cccc2c(=O)n(CC(C)O)ccc12 (stereo not drawn) [Compound 149] | 
 | 0 to 25 | Cc1ccc(Cl)c(C(=O)Nc2cccc3c(=O)n(CC(C)O)ccc23)c1 (stereo not drawn) [Compound 178] | 
